Assay results taken from US6878746B2, “Carbamate and thiocarbamate podophyllotoxin derivatives, preparation method and pharmaceutical compositions containing them” (priority 2000, dated 2005).

How the values were obtained:
[1] = system: Lewis lung carcinoma (LLC); experiment: Anti-tumour activity on Lewis lung carcinoma; type: in vivo, B6D2F1 mice; conditions: D 4, 8, 12; for T/C %: increase in survival time; for Survivors D90: surviving animals on day 90, 7 animals per group
Excerpt: Lewis lung carcinoma (LLC) is a solid tumour that appeared spontaneously in the lungs of a C57B1/6 mouse and is maintained by successive transplants of fragments by the s.c. route. The LLC was obtained from the Division of Cancer Treatment, Tumor Repository, National Cancer Institute, Frederick, Md., USA. The mice, which are 4 to 6 weeks old, were obtained from Iffa Credo (Lyon, France), and weighed from 20 to 22 g at the beginning of the experiment.
On the first day of the experiment (D0), the tumours are removed and cut into fragments of approximately 30 mg which are immediately grafted by the s.c. route into the B6D2F1 mice. The mice into which the fragments have been implanted are then randomly divided into the treated groups and the control group (7 animals per group).
The parameter used for evaluating the anti-tumour activity is the increase in survival time.
In addition, the number of surviving animals in each group is counted at the end of the experiment on day 90.
The products were administered in accordance with the scheme shown below. The results are expressed as % T/C, calculated in the same manner as in the preceding test: […]

murine leukaemia L1210 = experiment: In vitro cytotoxicity, Microculture Tetrazolium Assay; type: cell-based; conditions: exposure for four doubling periods (48 or 96 hours)
Description: (§1) The compounds of the invention were tested on various human and murine cell lines: • murine leukaemia L1210, • epidermoid carcinoma A-431, • non-small-cell lung carcinoma A549, • small-cell lung carcinoma H69, • colon carcinoma HT29, • buccal epidermoid carcinoma KB-3-1.
(§2) The cells are cultured in RPMI 1640 complete culture medium comprising 10% foetal calf serum, 2 mM glutamine, 50 units/ml of penicillin, 50 μg/ml of streptomycin and 10 mM Hepes, pH 7.4. The cells are distributed on microplates and are exposed to the cytotoxic compounds for four doubling periods, that is to say 48 hours or 96 hours. The number of viable cells is then quantified by a colorimetric assay, the Microculture Tetrazolium Assay (J. Carmichael et al., Cancer Res.; 47, 936-942, (1987)). The results are expressed as IC50, the cytotoxic concentration that inhibits the proliferation of the treated cells by 50%.

L1210 cells = experiment: Action on the cell cycle (propidium iodide); type: cell-based, murine; conditions: 100 nM, after 21 hours; control: 20%
Description: L1210 cells are incubated for 21 hours at 37° C. in the presence of various concentrations of test compounds. The cells are then fixed using 70% ethanol (v/v), washed twice in PBS and incubated for 30 minutes at 20° C. in PBS that contains 100 μg/ml of RNAse and 50 μg/ml of propidium iodide. The results are expressed as a percentage of the cells that have accumulated in the G2+M phase after 21 hours compared with the control (control: 20%). At a concentration of 100 nM, the compound of Example 6 induces an 86% accumulation of the cells in the G2+M phase after 21 hours.

P388 (murine leukaemia) = experiment: Anti-tumour activity on P388 leukaemia; type: in vivo, female BDF1 mice; conditions: 6.25 mg/kg, intravenous route on day 1; tumour cells inoculated i.p.
Description: Line P388 (murine leukaemia) was supplied by the National Cancer Institute (Frederick, USA). The tumour cells (10^6 cells) were inoculated on day 0 into the peritoneal cavity of female BDF1 mice (Iffa-Credo, France) weighing from 18 to 20 g (groups of 6 animals).
The products were administered by the intravenous route on day 1.
The anti-tumour activity is expressed as % T/C: [formula] For information only, the compound of Example 6 is active against P388 leukaemia and induces a T/C of 203% at 6.25 mg/kg. *Anti-tumour Activity of the Compounds on Lewis Lung Carcinoma: […]

colon carcinoma HT29 = experiment: In vitro cytotoxicity, Microculture Tetrazolium Assay; type: cell-based, human; conditions: exposure for four doubling periods (48 or 96 hours)
Description: as §1, §2

[2] = system: small-cell lung carcinoma H69; experiment: as above; type: cell-based, human; conditions: exposure for four doubling periods (48 or 96 hours)
Description: as §1, §2

[3] = system: non-small-cell lung carcinoma A549; experiment: as above; type: cell-based, human; conditions: exposure for four doubling periods (48 or 96 hours)
Description: as §1, §2

[4] = system: buccal epidermoid carcinoma KB-3-1; experiment: as above; type: cell-based, human; conditions: exposure for four doubling periods (48 or 96 hours)
Description: as §1, §2

[5] = system: epidermoid carcinoma A-431; experiment: as above; type: cell-based, human; conditions: exposure for four doubling periods (48 or 96 hours)
Description: as §1, §2

Compound | T/C % ([1]; 25 mg/kg i.v.) [%] | Survivors D90 ([1]; 25 mg/kg i.v.) | IC50 (murine leukaemia L1210) [nM] | accumulation of the cells in the G2+M phase (L1210 cells) [%] | T/C (P388 (murine leukaemia)) [%] | IC50 (colon carcinoma HT29) [nM] | IC50 [2] [nM] | IC50 [3] [nM] | IC50 [4] [nM] | IC50 [5] [nM] | T/C % ([1]; 3.12 mg/kg i.v.) [%] | Survivors D90 ([1]; 3.12 mg/kg i.v.)
COc1cc([C@@H]2c3cc4c(cc3[C@@H](OC(=O)N(C)CCN(C)C)[C@@H]3COC(=O)[C@@H]23)OCO4)cc(OC)c1O [Example 1, (5S,5aS,8aS,9R)-9-(4-Hydroxy-3,5-dimethoxyphenyl)-8-oxo-5,5a,6,8,8a,9-hexahydro-furo[3′,4′:6,7]naphtho[2,3-d][1,3] dioxol-5-yl 2-(dimethylamino)ethyl(methyl)carbamate] | 165 | 1/7 |  |  |  |  |  |  |  |  |  | 
(5S,5aS,8aS,9R)-9-(4-Hydroxy-3,5-dimethoxyphenyl)-8-oxo-5,5a,6,8,8a,9-hexahydro-furo[3′,4′:6,7]naphtho[2,3-d][1,3]dioxol-5-yl-2-(dimethylamino)ethylcarbamate [Example 6] |  |  | 38 | 86 | 203 | 121 | 96 | 46 | 85 | 71 | 168 | 1/7
